Source: ChEMBL document CHEMBL5465560, “Selectivity Literature for EUbOPEN Chemogenomic Library” (2024)

Columns and labels:
[1] = target: Serine/threonine-protein kinase Chk2 (Homo sapiens) (UniProt O96017); assay: Selectivity interaction (Kinase panel (Z-LYTE Assay)) EUB0001632a CHEK2; conditions: at 10 µM
[2] = target: MAP/microtubule affinity-regulating kinase 3 (Homo sapiens) (UniProt P27448); assay: Selectivity interaction (KinomeScan (DiscoverX)) EUB0000666a MARK3; conditions: at 10 µM
[3] = target: T1, Dual specificity tyrosine-phosphorylation-regulated kinase 2 (Homo sapiens, UniProt Q92630); assay: Selectivity interaction (Enzymatic assay (Eurofins)) EUB0001049a DYRK2
T1 sequence (Q92630 whole entry): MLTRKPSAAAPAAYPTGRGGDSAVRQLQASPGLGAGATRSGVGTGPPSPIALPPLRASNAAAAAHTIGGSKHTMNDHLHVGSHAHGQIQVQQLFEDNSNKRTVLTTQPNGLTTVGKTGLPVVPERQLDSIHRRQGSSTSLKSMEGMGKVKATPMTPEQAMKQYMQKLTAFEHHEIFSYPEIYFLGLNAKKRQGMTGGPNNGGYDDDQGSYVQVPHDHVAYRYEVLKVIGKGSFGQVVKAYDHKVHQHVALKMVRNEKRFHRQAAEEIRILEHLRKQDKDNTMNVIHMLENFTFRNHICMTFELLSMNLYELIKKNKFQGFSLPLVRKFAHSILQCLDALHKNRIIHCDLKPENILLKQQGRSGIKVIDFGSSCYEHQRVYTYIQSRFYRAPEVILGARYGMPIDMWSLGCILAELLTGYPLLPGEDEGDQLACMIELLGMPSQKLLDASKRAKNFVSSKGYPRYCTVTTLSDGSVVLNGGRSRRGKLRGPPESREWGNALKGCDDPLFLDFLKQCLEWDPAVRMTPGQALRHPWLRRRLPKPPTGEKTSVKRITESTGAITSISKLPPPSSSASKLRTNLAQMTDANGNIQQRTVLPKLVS

[4] = target: Ribosomal protein S6 kinase alpha-4 (Homo sapiens) (UniProt O75676); assay: Selectivity interaction (KinomeScan (DiscoverX)) EUB0001049a RPS6KA4; conditions: at 1 µM
[5] = target: Serine/threonine-protein kinase pim-1 (Homo sapiens, UniProt P11309)
[6] = target: AP2-associated protein kinase 1 (Homo sapiens, UniProt Q2M2I8); assay: Selectivity interaction (Kinase panel (DSF assay)) EUB0001558a AAK1
[7] = target: T2, Tyrosine-protein kinase Mer (Homo sapiens) (UniProt Q12866); assay: Selectivity interaction (Kinase panel (Invitrogen)) EUB0000639a MERTK; conditions: at 200 nM
T2 sequence (whole entry): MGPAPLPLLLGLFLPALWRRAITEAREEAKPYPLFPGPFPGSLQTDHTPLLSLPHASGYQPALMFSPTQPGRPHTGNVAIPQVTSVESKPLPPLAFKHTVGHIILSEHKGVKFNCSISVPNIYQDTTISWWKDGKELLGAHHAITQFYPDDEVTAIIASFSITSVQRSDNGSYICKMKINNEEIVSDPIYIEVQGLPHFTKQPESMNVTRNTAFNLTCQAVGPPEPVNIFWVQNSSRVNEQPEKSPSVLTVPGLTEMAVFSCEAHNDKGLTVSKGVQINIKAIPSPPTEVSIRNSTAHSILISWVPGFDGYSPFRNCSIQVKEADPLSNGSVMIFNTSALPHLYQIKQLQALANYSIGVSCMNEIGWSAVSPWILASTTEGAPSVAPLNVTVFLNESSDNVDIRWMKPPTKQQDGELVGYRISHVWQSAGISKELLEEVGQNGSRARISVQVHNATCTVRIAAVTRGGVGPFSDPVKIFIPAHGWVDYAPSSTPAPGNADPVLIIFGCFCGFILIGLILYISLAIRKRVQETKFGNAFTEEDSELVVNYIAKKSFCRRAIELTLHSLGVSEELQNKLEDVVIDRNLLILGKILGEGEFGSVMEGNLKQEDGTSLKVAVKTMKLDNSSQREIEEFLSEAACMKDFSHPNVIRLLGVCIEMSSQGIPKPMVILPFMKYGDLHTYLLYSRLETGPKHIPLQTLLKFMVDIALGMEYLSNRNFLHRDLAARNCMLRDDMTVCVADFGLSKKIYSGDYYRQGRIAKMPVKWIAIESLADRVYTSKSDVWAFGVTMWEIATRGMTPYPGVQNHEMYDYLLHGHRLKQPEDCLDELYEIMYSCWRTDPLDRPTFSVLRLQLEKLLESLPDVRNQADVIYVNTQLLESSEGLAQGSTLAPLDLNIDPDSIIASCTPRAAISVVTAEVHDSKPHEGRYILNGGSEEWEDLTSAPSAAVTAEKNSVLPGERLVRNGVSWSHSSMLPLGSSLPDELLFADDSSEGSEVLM

[8] = target: T3, Dual specificity protein kinase TTK (Homo sapiens) (UniProt P33981); assay: Selectivity interaction (Kinase panel (Invitrogen)) EUB0000639a TTK; conditions: at 200 nM
T3 sequence (whole entry): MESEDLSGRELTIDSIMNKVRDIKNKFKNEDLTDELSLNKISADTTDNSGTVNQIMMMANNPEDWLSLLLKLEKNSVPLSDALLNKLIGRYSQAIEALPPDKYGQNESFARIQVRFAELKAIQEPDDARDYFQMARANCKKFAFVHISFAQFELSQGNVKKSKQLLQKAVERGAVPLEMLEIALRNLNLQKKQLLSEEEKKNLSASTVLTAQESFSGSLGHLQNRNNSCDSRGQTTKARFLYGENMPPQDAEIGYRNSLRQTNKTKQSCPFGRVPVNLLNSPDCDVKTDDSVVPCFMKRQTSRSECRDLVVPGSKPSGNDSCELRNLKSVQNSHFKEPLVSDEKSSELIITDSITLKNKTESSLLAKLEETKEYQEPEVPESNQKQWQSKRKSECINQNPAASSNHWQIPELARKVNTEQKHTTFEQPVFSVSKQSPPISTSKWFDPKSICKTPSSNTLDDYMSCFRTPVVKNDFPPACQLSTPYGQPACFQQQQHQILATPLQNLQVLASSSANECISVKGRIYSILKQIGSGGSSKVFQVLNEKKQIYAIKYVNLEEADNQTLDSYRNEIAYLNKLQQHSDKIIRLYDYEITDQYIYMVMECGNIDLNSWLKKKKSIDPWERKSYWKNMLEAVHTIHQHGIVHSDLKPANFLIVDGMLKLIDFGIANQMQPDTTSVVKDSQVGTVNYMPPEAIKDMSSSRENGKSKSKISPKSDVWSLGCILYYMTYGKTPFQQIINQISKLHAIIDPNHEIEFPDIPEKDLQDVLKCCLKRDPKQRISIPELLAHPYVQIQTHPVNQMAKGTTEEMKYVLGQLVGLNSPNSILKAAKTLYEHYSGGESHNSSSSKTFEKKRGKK

[9] = target: Glycogen synthase kinase-3 alpha (Homo sapiens, UniProt P49840); assay: Selectivity interaction (Ambit KINOMEscan and KiNATiv profiling in Jurkat cells) EUB0000090b GSK3A; type: cell-based; conditions: at 1 µM
Glycogen synthase kinase-3 alpha, sequence (P49840 2-483 limits assumed): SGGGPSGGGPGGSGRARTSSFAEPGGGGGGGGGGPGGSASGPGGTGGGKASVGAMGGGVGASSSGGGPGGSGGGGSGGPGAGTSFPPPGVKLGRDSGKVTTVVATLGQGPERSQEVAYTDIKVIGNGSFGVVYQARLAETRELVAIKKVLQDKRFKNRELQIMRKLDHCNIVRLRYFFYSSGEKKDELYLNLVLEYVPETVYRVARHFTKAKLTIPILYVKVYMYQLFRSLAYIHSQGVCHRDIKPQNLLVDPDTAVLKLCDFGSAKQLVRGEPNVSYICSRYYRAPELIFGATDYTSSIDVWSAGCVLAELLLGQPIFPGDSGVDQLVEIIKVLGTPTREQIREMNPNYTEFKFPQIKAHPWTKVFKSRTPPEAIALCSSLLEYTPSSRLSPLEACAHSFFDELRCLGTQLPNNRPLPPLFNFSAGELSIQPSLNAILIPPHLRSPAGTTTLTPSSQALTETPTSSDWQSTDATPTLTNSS

Ribosomal protein S6 kinase alpha-4 (Homo sapiens), sequence (O75676 whole entry, looked up): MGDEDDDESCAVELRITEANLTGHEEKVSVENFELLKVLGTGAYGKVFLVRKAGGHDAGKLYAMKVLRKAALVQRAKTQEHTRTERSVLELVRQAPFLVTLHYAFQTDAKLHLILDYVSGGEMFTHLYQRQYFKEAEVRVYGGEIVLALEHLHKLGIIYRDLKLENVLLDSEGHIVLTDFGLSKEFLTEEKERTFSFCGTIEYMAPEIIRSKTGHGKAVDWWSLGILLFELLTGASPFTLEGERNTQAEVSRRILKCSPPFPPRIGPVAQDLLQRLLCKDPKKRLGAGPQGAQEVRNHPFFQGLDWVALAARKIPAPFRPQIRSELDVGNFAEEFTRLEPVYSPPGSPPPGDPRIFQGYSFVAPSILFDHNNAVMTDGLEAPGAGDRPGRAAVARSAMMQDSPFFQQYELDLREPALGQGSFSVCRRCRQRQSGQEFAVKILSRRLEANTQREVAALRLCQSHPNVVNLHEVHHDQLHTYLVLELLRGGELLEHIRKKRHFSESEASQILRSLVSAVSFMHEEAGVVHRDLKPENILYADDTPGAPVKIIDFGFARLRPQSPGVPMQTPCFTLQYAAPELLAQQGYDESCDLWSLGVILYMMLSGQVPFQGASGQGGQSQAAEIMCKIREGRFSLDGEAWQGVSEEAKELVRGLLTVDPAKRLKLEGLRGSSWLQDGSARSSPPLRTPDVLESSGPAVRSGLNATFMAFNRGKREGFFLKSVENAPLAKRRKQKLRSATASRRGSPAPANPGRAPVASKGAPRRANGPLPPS
Serine/threonine-protein kinase Chk2 (Homo sapiens), sequence (O96017 whole entry): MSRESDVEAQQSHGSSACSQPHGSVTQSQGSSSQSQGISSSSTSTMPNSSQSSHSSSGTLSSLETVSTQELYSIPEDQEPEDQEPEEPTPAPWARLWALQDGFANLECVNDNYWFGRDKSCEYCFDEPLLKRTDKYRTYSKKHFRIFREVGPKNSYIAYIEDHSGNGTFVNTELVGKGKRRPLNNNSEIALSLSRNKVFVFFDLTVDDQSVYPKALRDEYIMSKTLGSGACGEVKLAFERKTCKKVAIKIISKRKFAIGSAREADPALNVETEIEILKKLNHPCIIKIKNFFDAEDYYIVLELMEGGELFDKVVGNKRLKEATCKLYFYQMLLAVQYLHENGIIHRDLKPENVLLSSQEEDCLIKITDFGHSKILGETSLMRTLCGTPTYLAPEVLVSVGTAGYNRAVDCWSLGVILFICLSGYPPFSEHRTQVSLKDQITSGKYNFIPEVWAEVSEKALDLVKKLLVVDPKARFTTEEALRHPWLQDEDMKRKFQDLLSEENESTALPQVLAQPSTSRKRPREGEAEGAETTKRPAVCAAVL
AP2-associated protein kinase 1, sequence (Q2M2I8 whole entry, looked up): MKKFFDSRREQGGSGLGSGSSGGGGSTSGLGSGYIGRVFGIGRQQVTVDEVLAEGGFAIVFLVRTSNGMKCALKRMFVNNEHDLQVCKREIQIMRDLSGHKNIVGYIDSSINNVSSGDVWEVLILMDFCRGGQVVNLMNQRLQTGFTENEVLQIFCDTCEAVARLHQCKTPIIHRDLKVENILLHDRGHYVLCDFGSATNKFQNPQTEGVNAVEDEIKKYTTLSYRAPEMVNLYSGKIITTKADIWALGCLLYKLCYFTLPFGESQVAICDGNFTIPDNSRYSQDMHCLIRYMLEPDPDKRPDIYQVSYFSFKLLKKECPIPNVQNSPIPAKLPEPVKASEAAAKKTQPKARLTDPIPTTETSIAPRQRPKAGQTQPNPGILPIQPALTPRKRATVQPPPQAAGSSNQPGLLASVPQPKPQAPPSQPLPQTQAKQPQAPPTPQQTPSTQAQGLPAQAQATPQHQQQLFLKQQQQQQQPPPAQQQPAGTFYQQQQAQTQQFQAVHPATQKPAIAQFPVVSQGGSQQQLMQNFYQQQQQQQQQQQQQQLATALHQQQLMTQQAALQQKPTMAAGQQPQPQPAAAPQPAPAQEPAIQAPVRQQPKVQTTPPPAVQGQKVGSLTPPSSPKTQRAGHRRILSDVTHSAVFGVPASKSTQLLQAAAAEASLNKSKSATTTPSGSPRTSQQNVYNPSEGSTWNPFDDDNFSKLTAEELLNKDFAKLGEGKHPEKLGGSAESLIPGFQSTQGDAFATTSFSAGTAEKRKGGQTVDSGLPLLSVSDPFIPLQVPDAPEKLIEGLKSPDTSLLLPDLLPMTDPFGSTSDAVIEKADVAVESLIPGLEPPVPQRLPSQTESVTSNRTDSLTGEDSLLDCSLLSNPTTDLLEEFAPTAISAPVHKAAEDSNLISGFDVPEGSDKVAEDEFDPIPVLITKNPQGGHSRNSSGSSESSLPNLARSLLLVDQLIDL
MAP/microtubule affinity-regulating kinase 3 (Homo sapiens), sequence (P27448 whole entry, looked up): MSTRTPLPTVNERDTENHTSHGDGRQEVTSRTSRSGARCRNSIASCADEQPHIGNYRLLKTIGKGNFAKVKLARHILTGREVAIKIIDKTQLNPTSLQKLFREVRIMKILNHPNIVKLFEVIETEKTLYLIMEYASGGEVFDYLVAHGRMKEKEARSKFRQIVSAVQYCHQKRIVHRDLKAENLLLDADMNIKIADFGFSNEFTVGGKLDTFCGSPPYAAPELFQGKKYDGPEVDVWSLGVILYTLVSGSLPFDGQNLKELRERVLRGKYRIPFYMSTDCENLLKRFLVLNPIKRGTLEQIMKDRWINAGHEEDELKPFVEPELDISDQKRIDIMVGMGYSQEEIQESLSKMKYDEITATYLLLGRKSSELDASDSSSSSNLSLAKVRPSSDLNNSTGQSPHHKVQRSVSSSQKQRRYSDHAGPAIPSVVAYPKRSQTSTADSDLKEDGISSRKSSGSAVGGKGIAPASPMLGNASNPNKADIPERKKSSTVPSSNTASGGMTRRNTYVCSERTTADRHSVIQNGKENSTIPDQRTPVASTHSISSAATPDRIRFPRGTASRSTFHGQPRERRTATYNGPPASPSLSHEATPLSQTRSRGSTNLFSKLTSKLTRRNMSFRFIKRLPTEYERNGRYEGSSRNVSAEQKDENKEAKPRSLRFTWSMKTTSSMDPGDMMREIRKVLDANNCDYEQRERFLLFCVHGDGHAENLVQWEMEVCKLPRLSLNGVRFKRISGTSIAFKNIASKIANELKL
Serine/threonine-protein kinase pim-1, sequence (P11309 whole entry): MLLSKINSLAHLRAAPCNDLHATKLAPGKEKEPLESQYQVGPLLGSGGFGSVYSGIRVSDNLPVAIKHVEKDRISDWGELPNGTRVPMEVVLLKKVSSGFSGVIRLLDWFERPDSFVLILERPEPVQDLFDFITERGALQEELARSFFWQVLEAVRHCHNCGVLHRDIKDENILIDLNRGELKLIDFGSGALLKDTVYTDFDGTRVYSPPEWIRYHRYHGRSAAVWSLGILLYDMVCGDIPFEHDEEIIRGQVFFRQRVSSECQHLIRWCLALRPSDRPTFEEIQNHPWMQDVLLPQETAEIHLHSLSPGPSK

## Cn1cc(-n2cnc3c(NCc4nc5cc(Cl)c(Cl)cc5[nH]4)nc(N4CCOCC4)nc32)cn1
[1]
  % of control: 12.8%

## O=C(NOC[C@H](O)CO)c1ccc(F)c(F)c1Nc1ccc(I)cc1F
[2]
  % of control: 91%

## COc1cc(Nc2nc(C)cc(-c3cnn4nc(OC)ccc34)n2)cc(C(F)(F)F)c1
[3]
  IC50: > 10 µM
[4]
  % of control: 96%

## CCc1cccc(CC)c1NC(=O)c1nn(C)c2c1CCc1cnc(Nc3ccc(C(=O)NC4CCN(C)CC4)cc3OC(F)(F)F)nc1-2
[5]
  IC50: > 10 µM

## CC(C)(O)[C@H](F)CN1Cc2cc(NC(=O)c3cnn4cccnc34)c(N3CCOCC3)cc2C1=O
[6]
  dTM: 0.2 K

## CC[C@@H]1[C@H](F)C(=O)N[C@@H]1COc1nccc2cc(C(N)=O)c(OC)cc12 [ZIMLOVISERTIB]
[7]
  % of inhibition: 3.13%
[8]
  % of inhibition: 8.59%

## CN(C)C/C=C/C(=O)Nc1ccc(C(=O)N2CCCC(Nc3ncc(Cl)c(-c4c[nH]c5ccccc45)n3)C2)cc1 (centres undefined)
[9]
  % of control: 5.7%
